Laboratory results from US11964990B2, “1,3,4,7-tetrahydro-2H-pyrrolo[3′,2′:5,6]pyrido[2,3-b][1,4]oxazepine bcl-2 inhibitors” (AbbVie Inc., priority 2022, dated 2024).
“And” between values parts separate entries of the source, which are not always exact repeats. Identical values can stand only once. Like-named read-outs stand apart in the source and are kept apart here.

Legend:
RS4;11 cells = experiment: Cell viability assay (CellTiter-Glo) in RS4;11 cell line; format: cell-based; conditions: 24 hours, 10% Human Serum, 50% decrease in cell viability
How it was run: (§1)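 RS4;11 or Molt-4 cells (3000 per well) in RPMI 1640 with 10% human serum treated with compound for 24 h, 5% CO2. Viability measured by CellTiter-Glo as percent of control; EC50 from sigmoidal dose-response curves.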

Molt-4 cells = experiment: Cell viability counter screen assay (CellTiter-Glo) in Molt-4 cells; format: cell-based; conditions: 24 hours, 10% Human Serum, 50% decrease in cell viability
How it was run: as §1

Bcl-xL protein = Bcl-xL protein (Homo sapiens (Human), UniProt Q07817); experiment: TR-FRET binding assay, Bcl-xL (F-Bak peptide probe); conditions: Bak BH3 peptide probe, Wang's equation
Procedure: (§2) Determination of the utility of compounds having Formula (I) or Formula (II) as binders to and inhibitors of anti-apoptotic Bcl-2 proteins was performed using the Time Resolved-Fluorescence Resonance Energy Transfer (TR-FRET) Assay. Tb-anti-GST antibody was purchased from Invitrogen (Catalog No. PV4216).
A human Bcl-xL encoding sequence was cloned into a pET41A vector. The protein was expressed with E. coli. BL21(DE3)-T1R strain in OETB autoinduction medium at 30° C. for 25 hours. The cell pellets were resuspended in lysis buffer (50 mM Tris, 140 mM NaCl, 1 mM DTT, 10% Glycerol, 0.1% Triton X-100, pH 7.5) and lysed with Microfluidizer. The Bcl-xL protein in clarified cell-lysate was purified with GST affinity chromatography. The eluate was dialyzed in the storage buffer (1×PBS, 10% Glycerol, 2 mM DTT, 1 mM Sodium Azide, pH 7.4) and stored at −80° C.
(§3) […] of a protein (Bcl-2 or Bcl-xL)/probe/antibody mixture pre-equilibrated for one hour in assay buffer was added to each well at final concentrations listed in Table 6 below.
(§4) The samples were then mixed on a shaker for 1 minute and equilibrated for an additional 3 hours at room temperature. For each assay plate, a probe/antibody and protein/antibody/probe mixture were included as a negative and a positive control, respectively. Fluorescence was measured on the Envision (Perkin Elmer) using a 340/35 nm excitation filter and 520/525 (F-Bak) and 495/510 nm (Tb-labeled anti-GST antibody) emission filters. Inhibition constants (Ki) were determined using Wang's equation (Wang FEBS Lett. 1995, 360, 111-114). The TR-FRET assay can be performed in the presence of varying concentrations of human serum (HS) to determine apparent half maximal inhibitory concentration (IC50) after HS protein binding.
(§5) Inhibition constants were determined using Wang's equation (Wang FEBS Lett. 1995, 360:111-4).

Bcl-2 protein = Bcl-2 protein (Homo sapiens (Human), UniProt P10415); experiment: TR-FRET binding assay, Bcl-2 (F-Bak peptide probe); conditions: Bak BH3 peptide probe, Wang's equation
Procedure: as §2
A Bcl-2 human encoding sequence was cloned into a pET41A vector (Novagen). The protein was expressed with E. coli. BL21(DE3)-T1R strain in OETB autoinduction medium at 30° C. for 25 hours. The cell pellets were resuspended in lysis buffer (50 mM Tris, 140 mM NaCl, 1 mM DTT, 10% Glycerol, 2 mM MgCl2, pH 7.3) and lysed with Microfluidizer. The Bcl-2 protein in clarified cell-lysate was purified with affinity chromatography (GST and Ni-NTA). The eluate was loaded onto a Superdex 75 column and further purified with a Q Sepharose column. The protein was purified on a phenyl hydrophobic interaction column and dialyzed in the storage buffer (50 mM Tris, 50 mM NaCl, 2 mM DTT, pH 7.5) and stored at −80° C.
as §3, §4, §5

[1] = Bioavailability study: pharmacokinetics after single intravenous or oral dose in mouse; format: in vivo; conditions: for Vd: read-out: VSS
Procedure: Studies were conducted to evaluate the pharmacokinetic profiles of Example 25 herein and Example 2 in WO 2019/040550 after single intravenous or oral dose in mouse. CD-1 mice (male) were obtained from Charles River Laboratories (Wilmington, MA).
The pharmacokinetics of Example 25 herein and Example 2 in WO 2019/040550 were evaluated following single 1 mg/kg intravenous or oral doses in mouse. Example 25 herein and Example 2 in WO 2019/040550 were prepared as a solution in DMSO: Tween 80: PEG-400: Dextrose 5% in Water (5:5:20:70, v/v) for the IV and oral dose mouse studies. The intravenous dose was administered as a slow bolus to the penile vein under isoflurane anesthesia. The oral doses were administrated by gavage. Serial blood samples were obtained […], 0.25, 0.5, 1.0, 4, 6, 9, 12, 24, 32 and 48 hours post dosing and […]. Plasma was separated by centrifugation and stored frozen (<−15° C.) until analysis.
HPLC-MS/MS bioanalytical methods were utilized for the quantitation of Example 25 herein and Example 2 in WO 2019/040550 concentration in plasma. The analytical methods used protein precipitation to extract compound from plasma. All samples were combined with a minimum two volume equivalents of organic solvent containing internal standard, vortexed and then centrifuged to pellet the proteins. Supernatants were used for subsequent analysis by liquid chromatography-tandem mass spectrometry (LC-MS/MS). Studies involving quantitative analysis employed spiked standards in plasma that were processed simultaneously with the samples.
Analytes were separated using reverse phase chromatography on a C8 or C18 column prior to analysis on an API5500™ (or higher) mass spectrometer with a Turbo-Ion Spray source. Peak areas were determined using Sciex Analyst™ 1.6 (or higher) software or Sound Analytics DiscoveryQuant™ 2.0 (or higher) software. Actual concentrations (when required) were calculated by regression analysis of the peak area ratio (parent/internal standard) of the spiked standards versus concentrations.
Peak plasma concentrations (Cm) and the time to peak plasma concentration (Tmax) were determined directly from the plasma concentration data for each animal. The compound plasma concentration data were submitted to multi-exponential curve fitting using WinNonlin software. The area under the plasma concentration-time curve from 0 to t hours after dosing (AUC0-t, t=time of the last measurable plasma concentration) was calculated using the linear trapezoidal rule. The residual area extrapolated to infinity, determined as the final measured plasma concentration (Ct) divided by the terminal plasma elimination rate constant (β), was added to the AUC0-t to produce the total area under the curve (AUC0-∞). The apparent total plasma clearance (CLp) was calculated by dividing the administered dose by the AUC0-∞. Half-life (t1/2) was determined with the following calculation: t1/2=ln (2)/elimination rate constant. The initial volume of distribution (Vc) was calculated as the dose divided by the extrapolated concentration at time=0 (C0). The volume of distribution at steady state, Vss, was estimated as a product of the total plasma clearance (CLp) and the mean residence time (MRT); the terminal-phase volume of distribution, Vβ, was derived from the total plasma clearance value (CLp) divided by the terminal plasma elimination rate constant (β). Oral bioavailability (F) was calculated as the dose-normalized AUC0-∞ (AUC0-∞/D) from the oral dose divided by the corresponding dose normalized AUC0-∞ from intravenous dosing.

[2] = male, CD-1, mouse, plasma, iv, 1 mg/kg, IV 1 mg/kg, individual animal
[3] = male, CD-1, mouse, plasma, iv, 1 mg/kg, IV 1 mg/kg, mean
[4] = male, CD-1, mouse, plasma, po, 1 mg/kg, PO 1 mg/kg, individual animal
[5] = male, CD-1, mouse, plasma, po, 1 mg/kg, PO 1 mg/kg, mean

Bcl-2 protein, sequence (P10415 other isoform, or with tags, fused parts or gaps): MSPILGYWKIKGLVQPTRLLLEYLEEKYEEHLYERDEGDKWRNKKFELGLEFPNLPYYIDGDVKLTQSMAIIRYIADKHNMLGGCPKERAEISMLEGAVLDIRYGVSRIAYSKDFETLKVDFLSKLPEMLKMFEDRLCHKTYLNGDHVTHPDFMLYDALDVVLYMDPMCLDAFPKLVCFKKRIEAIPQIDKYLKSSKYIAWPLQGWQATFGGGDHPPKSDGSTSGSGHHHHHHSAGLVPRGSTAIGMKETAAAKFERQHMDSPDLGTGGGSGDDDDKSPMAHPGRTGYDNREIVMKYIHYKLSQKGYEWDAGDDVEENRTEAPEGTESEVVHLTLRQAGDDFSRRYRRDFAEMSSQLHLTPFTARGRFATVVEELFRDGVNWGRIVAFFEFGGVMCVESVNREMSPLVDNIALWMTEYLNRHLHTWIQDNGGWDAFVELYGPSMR
Bcl-xL protein, sequence (Q07817 other isoform, or with tags, fused parts or gaps): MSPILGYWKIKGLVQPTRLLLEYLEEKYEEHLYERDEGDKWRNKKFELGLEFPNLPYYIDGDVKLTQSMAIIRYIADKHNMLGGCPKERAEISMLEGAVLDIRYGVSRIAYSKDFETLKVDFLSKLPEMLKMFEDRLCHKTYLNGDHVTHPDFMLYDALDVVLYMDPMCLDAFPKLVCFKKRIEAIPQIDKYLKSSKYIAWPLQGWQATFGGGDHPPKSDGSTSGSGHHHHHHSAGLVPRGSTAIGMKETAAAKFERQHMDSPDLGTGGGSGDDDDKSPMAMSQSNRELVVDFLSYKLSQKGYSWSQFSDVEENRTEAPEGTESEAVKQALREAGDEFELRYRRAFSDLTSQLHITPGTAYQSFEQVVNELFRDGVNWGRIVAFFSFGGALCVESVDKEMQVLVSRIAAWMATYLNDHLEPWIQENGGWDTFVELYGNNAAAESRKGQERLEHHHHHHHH

Row | Structure (SMILES) | EC50 (RS4;11 cells) [nM] | EC50 (Molt-4 cells) [nM] | Ki (Bcl-xL protein) [nM] | Ki (Bcl-2 protein) [nM] | also measured
1 | CO[C@@H]1CC[C@@H](COc2ccc(S(=O)(=O)NC(=O)c3ccc(N4CCN5CC6=C(c7ccc(Cl)cc7)CC(C)(C)C[C@H]6OCCCOC[C@@H]5C4)cc3N3CCCOc4nc5[nH]ccc5cc43)cc2[N+](=O)[O-])OC1 [Example 51] | 9.6 | > 10000 | 18.9 | 0.1 | –
2 | CO[C@]1(CF)C[C@@H](CNc2ccc(S(=O)(=O)NC(=O)c3ccc(N4CCN5CC6=C(c7ccc(Cl)cc7)CC(C)(C)C[C@H]6OCCCOC[C@@H]5C4)cc3N3CCCOc4nc5[nH]ccc5cc43)cc2[N+](=O)[O-])C1 [Example 48, 4-((4aS,10aR)-14-(4-chlorophenyl)-12,12-dimethyl-1,2,4a,5,8,9,10a,11,13,15-decahydro-7H,12H-benzo[f]pyrazino[2,1-c][1,8]dioxa[4]azacycloundecin-3(4H)-yl)-2-(3,4-dihydro-2H-pyrrolo[3′,2′:5,6]pyrido[2,3-b][1,4]oxazepin-1(7H)-yl)-N-((4-((((1r,3r)-3-(fluoromethyl)-3-methoxycyclobutyl)methyl)amino)-3-nitrophenyl)sulfonyl)benzamide] | 18.1 | 5840 | 28.6 | 0.206 | –
3 | CC1(C)CC(c2ccc(Cl)cc2)=C2CN3CCN(c4ccc(C(=O)NS(=O)(=O)c5ccc(OC[C@H]6CC[C@](C)(O)CC6)c([N+](=O)[O-])c5)c(N5CCCOc6nc7[nH]ccc7cc65)c4)C[C@H]3COCCCO[C@@H]2C1 [Example 44, 4-((4aS,10aR)-14-(4-chlorophenyl)-12,12-dimethyl-1,2,4a,5,8,9,10a,11,13,15-decahydro-7H,12H-benzo[f]pyrazino[2,1-c][1,8]dioxa[4]azacycloundecin-3(4H)-yl)-2-(3,4-dihydro-2H-pyrrolo[3′,2′:5,6]pyrido[2,3-b][1,4]oxazepin-1(7H)-yl)-N-((4-(((1r,4r)-4-hydroxy-4-methylcyclohexyl)methoxy)-3-nitrophenyl)sulfonyl)benzamide] | 4.39 | 2270 | 7.98 | 0.0898 | –
4 | CC1(C)CC(c2ccc(Cl)cc2)=C2CN3CCN(c4ccc(C(=O)NS(=O)(=O)c5cnc(OC[C@H]6CC[C@@](C)(O)CC6)c(Cl)c5)c(N5CCCOc6nc7[nH]ccc7cc65)c4)C[C@H]3COCCCO[C@@H]2C1 [Example 50, N-((5-chloro-6-(((1s,4s)-4-hydroxy-4-methylcyclohexyl)methoxy)pyridin-3-yl)sulfonyl)-4-((4aS,10aR)-14-(4-chlorophenyl)-12,12-dimethyl-1,2,4a,5,8,9,10a,11,13,15-decahydro-7H,12H-benzo[f]pyrazino[2,1-c][1,8]dioxa[4]azacycloundecin-3(4H)-yl)-2-(3,4-dihydro-2H-pyrrolo[3′,2′:5,6]pyrido[2,3-b][1,4]oxazepin-1(7H)-yl)benzamide] | 41.9 | > 10000 | 39.7 | 0.237 | –
5 | CC1(C)CC(c2ccc(Cl)cc2)=C2CN3CCN(c4ccc(C(=O)NS(=O)(=O)c5ccc(OC[C@H]6CC[C@H](N7CCOCC7)CC6)c(Cl)c5)c(N5CCCOc6nc7[nH]ccc7cc65)c4)C[C@H]3COCCCO[C@@H]2C1 [Example 38, N-((3-chloro-4-(((1r,4r)-4-morpholinocyclohexyl)methoxy)phenyl)sulfonyl)-4-((4aS,10aR)-14-(4-chlorophenyl)-12,12-dimethyl-1,2,4a,5,8,9,10a,11,13,15-decahydro-7H,12H-benzo[f]pyrazino[2,1-c][1,8]dioxa[4]azacycloundecin-3(4H)-yl)-2-(3,4-dihydro-2H-pyrrolo[3′,2′:5,6]pyrido[2,3-b][1,4]oxazepin-1(7H)-yl)benzamide] | 26 | 2340 | 5.62 | 0.108 | –
6 | CO[C@@H]1CC[C@@H](CNc2ccc(S(=O)(=O)NC(=O)c3ccc(N4CCN5CC6=C(c7ccc(Cl)cc7)CC(C)(C)C[C@H]6OCCCOC[C@@H]5C4)cc3N3CCCOc4nc5[nH]ccc5cc43)cc2[N+](=O)[O-])OC1 [Example 25, 4-((4aS,10aR)-14-(4-chlorophenyl)-12,12-dimethyl-1,2,4a,5,8,9,10a,11,13,15-decahydro-7H,12H-benzo[f]pyrazino[2,1-c][1,8]dioxa[4]azacycloundecin-3(4H)-yl)-2-(3,4-dihydro-2H-pyrrolo[3′,2′:5,6]pyrido[2,3-b][1,4]oxazepin-1(7H)-yl)-N-((4-((((2S,5R)-5-methoxytetrahydro-2H-pyran-2-yl)methyl)amino)-3-nitrophenyl)sulfonyl)benzamide] | 1.79 | 1280 | – | – | Vβ ([1]; IV 1 mg/kg, plasma, individual animal): 0.95 L/kg and 1.0 L/kg and 0.90 L/kg; Vβ ([1]; IV 1 mg/kg, plasma, mean): 0.96 L/kg; Tmax ([1]; male, CD-1, PO 1 mg/kg, plasma, individual animal): 4 h; AUC [1, 2]: 15800 ng·h/mL; C0 [1, 2]: 4010 ng/mL; MRT [1, 2]: 12 h; half-life [1, 2]: 10 h; AUC [1, 3]: 13300 ng·h/mL; C0 [1, 3]: 4160 ng/mL; MRT [1, 3]: 11 h; clearance ([1]; male, CD-1, mouse, plasma, iv, 1 mg/kg, IV 1 mg/kg, plasma, individual animal, read-out: CLP (converted)): 1.05 mL/min/kg; Vd ([1]; male, CD-1, mouse, plasma, iv, 1 mg/kg, IV 1 mg/kg, plasma, individual animal): 0.78 L/kg; Vd ([1]; male, CD-1, mouse, plasma, iv, 1 mg/kg, IV 1 mg/kg, plasma, mean): 0.82 L/kg; AUC [1, 4]: 3580 ng·h/mL; Cmax [1, 4]: 210 ng/mL; half-life [1, 4]: 7.5 h; AUC [1, 5]: 4130 ng·h/mL; Cmax [1, 5]: 254 ng/mL; bioavailability ([1]; male, CD-1, plasma, PO 1 mg/kg vs IV 1 mg/kg, mean, read-out: F (oral bioavailability)): 31%
